Data from patent publication US11154529B2, “Phosphaplatin liquid formulations” (Phosplatin Therapeutics Inc., priority 2016, dated 2021).
Values joined by “and” are separate entries in the source; they are usually repeats but may differ in a detail not shown here. Equal entries are not always repeated.

Assay: Ready-to-use formulation stability at 25° C./60% RH, 5 mg/mL (R,R)-pyrodach-2 in 10 mM Potassium Phosphate Buffer at pH 7.4, 10 mL vials
Assay type: physicochemical
Experimental: A scalable and commercially viable process for the manufacture of a ready-to-use formulation of (R,R)-pyrodach-2 in 10 mM buffer adjusted to a pH of 7.0-7.5 comprises the steps of: a) preparing a 10 mM aqueous solution of buffer; b) adding sufficient hydroxide base to effect neutralization of the added (R,R)-pyrodach-2 to reach a pH of about 7; c) adding (R,R)-pyrodach-2 and allowing it to dissolve; d) if necessary adding additional hydroxide to adjust the pH into a range of about 7.0-7.5; and e) filtering the solution under sterile conditions, filling the solution into glass vials, and covering it with a stopper and/or a cap. Stability data on two large batches of 5 mg/mL (R,R)-pyrodach-2 in 10 mM potassium phosphate buffer were generated. One such batch at pH=7.2 was evaluated at both 25° C./60% RH and refrigerated (2-8° C.) conditions, with data summarized in Table 4 and Table 5, respectively. […] Similar observations have been made for the ready-to-use liquid formulation at pH7.4, as illustrated in Table 6 and Table 7.
• Transfer 4564.6 mg±0.5 mg of potassium phosphate dibasic, trihydrate to a 2-L volumetric flask. • Fill flask to approximately 75% volume with water, swirl as needed to dissolve all solids. • Volumetrically transfer 32.0 mL of 1N KOH to flask. • Dilute flask to volume with water and mix well. • Record pH of final solution. This is the diluent. • Transfer 7653.1 mg±0.5 mg of (R,R)-pyrodach-2 to a compounding vessel. • Transfer 1500 mL of the diluent to the vessel and stir to dissolve solids. • Record pH of final solution. • Pass entire solution through a 0.22 μm sterile filter membrane into a sterile collection vessel. • Calculate (R,R)-pyrodach-2 solution concentration
To a […] glass beaker equipped with mechanical mixer was add 24645.5 g of sterile water for injection. With agitation 47.03 gm of dibasic potassium phosphate USP was added and the solids allowed to dissolve. To the stirred solution was added 253.8 gm of 1.00 N potassium hydroxide. Sterile water for injection USP (900.0 gm) was used as a rinse to facilitate both additions. With vigorous agitation, (R,R)-pyrodach-2 (201.87 gm) was slowly added and agitation continued until all of the solids dissolved. Sterile water for injection USP (900.0 gm) was used as a rinse to facilitate the addition. The pH was determined to be 6.7. A total of 85 mL of 1.00 N potassium hydroxide was added in 5.0 mL aliquots to adjust the pH to 7.3. The solution was sterile filtered through 0.22μ Millipore Millipack filter and aseptically filled, 10 ml top a vial in 10 mL in 10 cc Wheaton clear molded vails, stoppered with a 20 mm stopper and crimp seal capped.

Question: Which “(DACH) Pt-monoaquo (~RRT 0.7)” value (15 Month) does the source give for `O=P1(O)OP(=O)(O)[O][Pt]2([NH][C@@H]3CCCC[C@H]3[NH]2)[O]1` (stereo partly drawn) [(R,R)-pyrodach-2, (R,R)-trans-1,2-cyclohexanediamine-(dihydrogenpyrophosphato)platinum(II)] here?
Answer: 0.92%

Question: What about the “Assay (Potency)” value (15 Month) of the same compound?
Answer: 96.8%

Question: And the “PT-112 Dimer (~RRT 4.0)” value (15 Month)?
Answer: 0.28%

Question: And the “RRT 0.42” value (15 Month)?
Answer: 0.12%

Question: What about the “RRT 0.46” value (15 Month) of the same compound?
Answer: 0.08%

Question: And the “RRT 0.50” value (15 Month)?
Answer: 0.44%

Question: What about the “RRT 0.56” value (15 Month) of the same compound?
Answer: 0.20%

Question: And the “RRT 0.68” value (15 Month)?
Answer: 0.11%

Question: What about the “RRT 0.86” value (15 Month) of the same compound?
Answer: 0.05%

Question: And the “RRT 3.1-3.2” value (15 Month)?
Answer: 0.78%

Question: And the “RRT 3.58” value (15 Month)?
Answer: 0.78%

Question: What about the “RRT 4.95” value (15 Month) of the same compound?
Answer: 0.51%

Question: And the “Total Related Substances” value (15 Month)?
Answer: 4%

Question: And the pH (15 Month)?
Answer: 7.5

Question: What about the “(DACH) Pt-diaquo (~RRT 0.3)” value (18 Month) of the same compound?
Answer: 0.12%

Question: And the “(DACH) Pt-monoaquo (~RRT 0.7)” value (18 Month)?
Answer: 0.78%

Question: And the “Assay (Potency)” value (18 Month)?
Answer: 96.9%

Question: And the “PT-112 Dimer (~RRT 4.0)” value (18 Month)?
Answer: 0.29%

Question: What about the “RRT 0.42” value (18 Month) of the same compound?
Answer: 0.15%

Question: And the “RRT 0.46” value (18 Month)?
Answer: 0.13%

Question: And the “RRT 0.50” value (18 Month)?
Answer: 0.59%

Question: What about the “RRT 0.56” value (18 Month) of the same compound?
Answer: 0.09%

Question: What about the “RRT 0.68” value (18 Month) of the same compound?
Answer: 0.08%

Question: And the “RRT 0.86” value (18 Month)?
Answer: 0.05%

Question: And the “RRT 3.1-3.2” value (18 Month)?
Answer: 0.73%

Question: And the “RRT 3.44” value (18 Month)?
Answer: 0.12%

Question: What about the “RRT 3.58” value (18 Month) of the same compound?
Answer: 1.06%

Question: What about the “RRT 4.95” value (18 Month) of the same compound?
Answer: 0.69%

Question: And the “Total Related Substances” value (18 Month)?
Answer: 5%

Question: What about the pH (18 Month) of the same compound?
Answer: 7.5

Question: And the “(DACH) Pt-diaquo (~RRT 0.3)” value (21 Month)?
Answer: 0.11%

Question: What about the “(DACH) Pt-monoaquo (~RRT 0.7)” value (21 Month) of the same compound?
Answer: 1.13%

Question: What about the “Assay (Potency)” value (21 Month) of the same compound?
Answer: 96.3%

Question: And the “PT-112 Dimer (~RRT 4.0)” value (21 Month)?
Answer: 0.28%

Question: What about the “RRT 0.42” value (21 Month) of the same compound?
Answer: 0.16%

Question: And the “RRT 0.46” value (21 Month)?
Answer: 0.12%

Question: What about the “RRT 0.50” value (21 Month) of the same compound?
Answer: 0.60%

Question: What about the “RRT 0.56” value (21 Month) of the same compound?
Answer: 0.17%

Question: And the “RRT 0.68” value (21 Month)?
Answer: 0.12%

Question: And the “RRT 3.1-3.2” value (21 Month)?
Answer: 0.75%

Question: What about the “RRT 3.41” value (21 Month) of the same compound?
Answer: 0.07%

Question: What about the “RRT 3.44” value (21 Month) of the same compound?
Answer: 0.05%

Question: And the “RRT 3.58” value (21 Month)?
Answer: 1.12%

Question: And the “RRT 4.95” value (21 Month)?
Answer: 0.89%

Question: And the “Total Related Substances” value (21 Month)?
Answer: 6%

Question: What about the pH (21 Month) of the same compound?
Answer: 7.4

Question: What about the “(DACH) Pt-diaquo (~RRT 0.3)” value (24 Month) of the same compound?
Answer: 0.11%

Question: And the “(DACH) Pt-monoaquo (~RRT 0.7)” value (24 Month)?
Answer: 0.85%

Question: And the “Assay (Potency)” value (24 Month)?
Answer: 94.6%

Question: And the “PT-112 Dimer (~RRT 4.0)” value (24 Month)?
Answer: 0.28%

Question: And the “RRT 0.42” value (24 Month)?
Answer: 0.18%

Question: What about the “RRT 0.46” value (24 Month) of the same compound?
Answer: 0.12%

Question: And the “RRT 0.50” value (24 Month)?
Answer: 0.70%

Question: What about the “RRT 0.56” value (24 Month) of the same compound?
Answer: 0.17%

Question: And the “RRT 0.68” value (24 Month)?
Answer: 0.13%

Question: And the “RRT 0.86” value (24 Month)?
Answer: 0.05%

Question: What about the “RRT 3.1-3.2” value (24 Month) of the same compound?
Answer: 0.72%

Question: And the “RRT 3.29” value (24 Month)?
Answer: 0.06%

Question: And the “RRT 3.44” value (24 Month)?
Answer: 0.05%

Question: And the “RRT 3.58” value (24 Month)?
Answer: 1.07%

Question: What about the “RRT 4.95” value (24 Month) of the same compound?
Answer: 1.12%

Question: And the “Total Related Substances” value (24 Month)?
Answer: 6%

Question: What about the pH (24 Month) of the same compound?
Answer: 7.4

Question: And the “(DACH) Pt-diaquo (~RRT 0.3)” value (Initial)?
Answer: 0.16%

Question: And the “(DACH) Pt-monoaquo (~RRT 0.7)” value (Initial)?
Answer: 0.84%

Question: What about the “Assay (Potency)” value (Initial) of the same compound?
Answer: 98.1%

Question: What about the “PT-112 Dimer (~RRT 4.0)” value (Initial) of the same compound?
Answer: 0.34%

Question: What about the “RRT 0.50” value (Initial) of the same compound?
Answer: 0.06%

Question: And the “RRT 0.56” value (Initial)?
Answer: 0.08%

Question: And the “RRT 0.68” value (Initial)?
Answer: 0.09%

Question: What about the “RRT 3.1-3.2” value (Initial) of the same compound?
Answer: 0.11%

Question: And the “Total Related Substances” value (Initial)?
Answer: 2%

Question: And the pH (Initial)?
Answer: 7.4

Question: And the “Particulate Matter (Light Obscuration)” value (Initial, first value)?
Answer: 30 particles particles per container and 30 particles per particles per container

Question: What about the “Particulate Matter (Light Obscuration)” value (Initial, second value) of the same compound?
Answer: 11 particles particles per container and 11 particles per particles per container
